Measurements from patent publication US20160228387A1, “SOLUBILIZED FORMULATION OF COQ10 FOR USE IN TREATMENT OF PARKINSON'S DISEASE” (NATIONAL RESEARCH COUNCIL OF CANADA (NRC), priority 2013, published 2016).
“And” between values parts separate entries of the source, which are not always exact repeats. Identical values can stand only once.

Tests used:
[1] = Dispersion and stability in water; format: physicochemical; settings: added to water
Source text: Based on the chemical structure, a-tocopherol constitutes 35.6% or one-third of the PTS molecule (Borowy-Borowski et al., 2004).

PD patients = settings: clinical trials in humans; cited from earlier work
[2] = tested on: TH-positive neurons in SNpc; assay: MPTP-induced neurodegeneration in mice: stereological count of TH-positive neurons in SNpc
Experimental: (§1) To induce the dopaminergic neurodegeneration, male C57BL/6 mice were acclimatized to the new environment for 7 days before the start of the experiment. Animals were randomly divided into experimental groups and given 5 daily injections of MPTP (25 mg/kg/injection). Control mice were injected with saline. On days 5, 8, 14, 28, and 45 after the MPTP injections, mice were sacrificed and brain tissue was collected for immunohistochemistry, stereology, and biochemical analyses. Brains were fixed and immunostained with rabbit polyclonal anti-tyrosine hydroxylase antibody (brown) and counterstained with cresyl violet (blue) for anatomic reference. TH-positive cells were counted using an unbiased stereology method and cell survival was plotted as percentage of control.
Mice were acclimatized for 7 days before the start of the experiment and were randomly divided into 3 experimental groups (I-III). Groups I and II were given regular water throughout the duration of the experiment. […] Groups II and III received 5 daily intraperitoneal injections of MPTP (25 mg/kg/injection) whereas, group I was injected with saline. At the conclusion of the experiment on D28, all animals were sacrificed and brain tissue was collected for immunohistochemistry, sterology, and Western blot.
Mice were acclimatized to the new environment for 7 days before the start of the experiment and were randomly divided into 3 experimental groups (I-III). Control group I was injected with saline and groups II and III received 5 daily MPTP injections (25 mg/kg/injection). […] The supplementation continued until the conclusion of the experiment on D28.
At the conclusion of the experiment on day 28 (D28), all mice were sacrificed and brains were collected for immunohistochemistry and stereology. Brains were fixed and immunostained with rabbit polyclonal anti-tyrosine hydroxylase antibody (brown) and counterstained with cresyl violet (blue) for anatomic reference. Images were captured on an Olympus microscope equipped with Microcast 3CCD 1080p HD color camera system.
(§2) Mice were acclimatized for 7 days before the start of the experiment and were randomly divided into 4 experimental groups (I-IV). Control group I was injected with saline and groups II-IV with MPTP (5×25 mg/kg). Mice in groups I and II were drinking regular water throughout the duration of the experiment. […] At the conclusion of the experiment (D28), all mice were sacrificed and brains were collected for immunohistochemistry, stereology, and biochemistry. Brains were fixed and immunostained with rabbit polyclonal anti-tyrosine hydroxylase antibody and counterstained with cresyl violet. Images were captured on an Olympus microscope equipped with Microcast 3CCD 1080p HD color camera.
Mice were acclimatized to the new environment and were randomly divided into 4 experimental groups (I, II, V, and VI).

striatal dopamine = assay: Striatal dopamine content in MPTP-treated mice
Experimental: as §1, §2

MPTP-treated mice = assay: Beam walk test (faults) in MPTP-treated mice; settings: MPTP alone (group II), D10
Experimental: As an additional step, the beam walk test, described above, was used to assess motor skills. The handling and training of mice on the test apparatus were performed before the MPTP injections. Mice were acclimatized to the new environment for 7 days (D[-21]-D[-14]) before the handling (D[-14]-D[-7]) and training (D[-7]-D1). Animals were randomly divided into 3 experimental groups (I-III). […] Animals were allowed to cross a 5-mm square and a 100-cm long beam and the number of faults, as well as the time taken to walk the beam, were recorded.

TH-positive neurons = assay: PQ-induced neurodegeneration in rats: stereological count of TH-positive neurons in midbrain sections; format: in vivo, Long Evans Hooded rats; settings: for total number of TH positive neurons: mean ± SD
Experimental: Long Evans Hooded rats were given 5 intraperitoneal injections of PQ at a dose of 10 mg/kg body weight/injection dissolved in phosphate buffered saline (PBS), one injection every five days over a period of 20 days. Control rats received intraperitoneal injections of PBS alone. Brain tissue was examined immediately after the last PQ injection and, subsequently, 4 weeks and 8 weeks later. […] Fresh drinking solutions were provided every second day. At the conclusion of experimental treatments, rats were perfused with Tyrodes buffer containing heparin, the tissues were fixed with 10% formalin, and the brains extracted and stored in the 10% formalin until processing for immunohistochemistry. Animals were sacrificed at different time points for up to 8 weeks post-PQ exposure. Midbrain sections were prepared, immunostained with anti-tyrosine hydroxylase antibody and TH-positive neurons were counted using a stereologer in an unbiased manner.
The Ubisol-Q10 intervention was applied after the completion of PQ injections described above. By this time, neurodegenerative processes in the brain had already begun. […] This treatment began when nearly 18% of SN neurons were already lost (PQ1 group), but the question was whether the remaining vulnerable neurons could be saved. The midbrain sections were immunostained with anti-TH antibodies, and the stained neurons were counted using a stereologer in an unbiased manner.
There was also significant neuroprotection in the rats that received the Ubisol-Q10 supplemented drinking water for eight weeks post injections.

rats exposed to PQ = assay: Horizontal beam-walking test (leg slips) in PQ-treated rats; format: in vivo, rat; settings: PQ alone (PQ3), 1st test phase, p<0.05
Experimental: Deficiency in motor function is a hallmark of PD. Motor skills of the rats treated in Example 2 were assessed using the beam walk test. All rats were assessed for performance on a horizontal beam-walking test for motor skills/motor deficits as measured by leg slips. The aluminium beam was 1.68 metres in length, 2 centimetres in width and 0.75 metres from the ground. A mirror was placed behind the beam, measuring 1.78 metres in length and 0.3 metres in height. Four weeks after the last injection, rats underwent one trial per day for four consecutive days (one training trial and three test trials). Eight weeks after the last injection another three test trials were performed (one trial per day). In the training trial, rats ran down the beam to the holding cage on a flat platform three times, each time with different distances between the holding cage and starting position. The first position was a quarter of the beam length, the second was half, and the last was the entire distance of the beam. […]
Rats received a small slice of apple in the holding cage located on a table at the end of the beam. […] The test trials were recorded using a standard video camera, located 2 metres perpendicular to the beam. The number of hind leg slips made from either leg during each test trial was later noted from viewing the recorded video clips. […]

[3] = vitamin E alone; cited from earlier work

Compound: COC1=C(OC)C(=O)C(CC=C(C)CCC=C(C)CCC=C(C)CCC=C(C)CCC=C(C)CCC=C(C)CCC=C(C)CCC=C(C)CCC=C(C)CCC=C(C)C)=C(C)C1=O [CoQ10, 2,3-dimethoxy, 5-methyl, 6-polyisoprene para-benzoquinone]
- behaviour in water [1]: floats on the surface as insoluble material
- clinical benefit against PD (PD patients): no clinical benefit

Compound: CN1CC=C(c2ccccc2)CC1 [MPTP, 1-methyl-4-phenyl-1,2,3,6-tetrahydropyridine]
- loss of TH-positive neurons ([2]; MPTP alone (5 x 25 mg/kg i.p.), day 28): 51.6% and 50%
- number of tyrosine hydroxylase-positive neurons, mean ([2]; MPTP alone (Table 9; control = 100)): 66
- surviving TH neurons (percentage of control) ([2]; MPTP alone, D28 (Table 5)): 50.3 ± 7.3%
- survival of TH-positive neurons ([2]; MPTP alone, day 45): 50%
- number of TH-positive neurons in SNpc ([2]; MPTP alone, regular water, D28 (Table 6)): 3281 ± 291 and 3320 ± 700
- number of TH positive neurons in SNpc ([2]; MPTP alone, regular water, D56): 4192 ± 295
- striatal dopamine level reduced to (striatal dopamine; MPTP alone (group II), by D28): 50%
- striatal dopamine level (striatal dopamine; MPTP alone, D28 (Table 7)): 15.1 ± 2.2
- decrease of striatal dopamine content (striatal dopamine; MPTP alone, by day 28): ~50%
- number of faults on beam walk, average (MPTP-treated mice): ~7 faults

Compound: C[n+]1ccc(-c2cc[n+](C)cc2)cc1 [PQ, paraquat]
- total number of TH positive neurons (TH-positive neurons; PQ alone (5 x 10 mg/kg i.p.), 0 weeks after last PQ injection (PQ1)): 8722 ± 3559
- loss of DA (TH-positive) neurons versus control (TH-positive neurons; PQ alone, during the PQ injection period (PQ1)): ~18% and ~15%
- total number of TH positive neurons (TH-positive neurons; PQ alone, regular water, 4 weeks after PQ injections (PQ2)): 6006 ± 1928 and 6227 ± 1682
- total number of TH positive neurons (TH-positive neurons; PQ alone, regular water, 8 weeks after PQ injections (PQ3)): 5114 ± 1562 and 4661 ± 1097
- number of leg slips versus the other three groups (rats exposed to PQ): significantly greater

Compound: Cc1c(C)c2c(c(C)c1O)CC[C@@](C)(CCC[C@H](C)CCC[C@H](C)CCCC(C)C)O2 [vitamin E, α-tocopherol]
- effect on neuroprotection [3]: did not have a significant effect

Compound: polyoxyethanyl-cholesteryl sebacate [PCS]
- number of tyrosine hydroxylase-positive neurons, mean ([2]; in drinking water from 2 weeks before to 3 weeks after MPTP injections (Table 9; control = 100)): 58
